Data as given in patent US7538131B2, “2-{-3-′2-(phenyl)-oxazol-4-ylmethoxymethyl-cyclohexylmethoxy}-propionic acid derivatives useful as peroxisome proliferator-activated receptor (PPAR) ligands for the treatment of hyperlipidemia and diabetes” (Sanofi-Aventis Deutschland GmbH, priority 2004, dated 2009).

Columns and labels:
[1] = target: T1, human PPARgamma (Homo sapiens, UniProt P37231); test: Cellular PPARgamma assay (transiently transfected HEK cells, luciferase reporter); assay type: cell-based; conditions: GAL4-humanPPARgammaLBD, firefly/Renilla luciferase ratio, 48 h
T1 construct: human PPARgamma receptor (amino acids 1152-Y475); expressed in transfected cells; host or cells: HEK cells (transiently transfected, pcDNA3-GAL4-humanPPARgammaLBD)
T1 sequence (P37231 182-477 isoform P37231-2 limits assumed): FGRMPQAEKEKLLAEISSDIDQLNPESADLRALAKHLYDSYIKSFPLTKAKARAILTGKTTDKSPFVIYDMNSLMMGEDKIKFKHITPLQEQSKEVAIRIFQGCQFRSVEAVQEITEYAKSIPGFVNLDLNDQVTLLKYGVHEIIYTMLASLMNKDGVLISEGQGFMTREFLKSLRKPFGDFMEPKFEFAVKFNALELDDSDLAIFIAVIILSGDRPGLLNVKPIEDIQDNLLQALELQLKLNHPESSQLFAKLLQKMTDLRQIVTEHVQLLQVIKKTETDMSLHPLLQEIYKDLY
Excerpt: 4) Determination of EC50 Values of PPAR Agonists in the Cellular PPARgamma Assay
A transient transfection system is employed to determine the cellular PPARgamma activity of PPAR agonists. It is based on the use of a luciferase reporter plasmid (pGL3basic-5xGAL4-TK) and of a PPARgamma expression plasmid (pcDNA3-GAL4-humanPPARgammaLBD). Both plasmids are transiently transfected into human embryonic kidney cells (HEK cells). There is then expression in these cells of the fusion protein GAL4-humanPPARgammaLBD which binds to the GAL4 binding sites of the reporter plasmid. In the presence of a PPARgamma-active ligand, the activated fusion protein GAL4-humanPPARgammaLBD induces expression of the luciferase reporter gene, which can be detected in the form of a chemiluminescence signal after addition of a luciferase substrate. As a difference from the stably transfected PPARalpha reporter cell line, in the cellular PPARgamma assay the two components (luciferase reporter plasmid and PPARgamma expression plasmid) are transiently transfected into HEK cells because stable and permanent expression of the PPARgamma fusion protein is cytotoxic.
The luciferase reporter plasmid pGL3basic-5xGAL4-TK is based on the vector pGL3basic from Promega. The reporter plasmid is prepared by cloning five binding sites of the yeast transcription factor GAL4 (each binding site with the sequence 5′-CTCGGAGGACAGTACTCCG-3′), together with a 160 bp-long thymidine kinase promoter section (Genbank Accession #AF027128) 5′-upstream into pGL3basic. 3′-downstream of the thymidine kinase promoter is the complete luciferase gene from Photinus pyralis (Genbank Accession # Ml 5077), which is already a constituent of the plasmid pGL3basic used. The cloning and sequencing of the reporter plasmid pGL3basic-5xGAL4-TK took place in analogy to the description in Sambrook J. et. al. (Molecular cloning, Cold Spring Harbor Laboratory Press, 1989).
The PPARgamma expression plasmid pcDNA3-GAL4-humanPPARgammaLBD was prepared by first cloning the cDNA coding for amino acids 1-147 of the yeast transcription factor GAL4 (Genbank Accession #P04386) into the plasmid pcDNA3 (from Invitrogen) 3′-downstream of the cytomegalovirus promoter. Subsequently, the cDNA of the ligand-binding domain (LBD) of the human PPARgamma receptor (amino acids […]; Accession #g1480099) 3′-downstream of the GAL4 DNA binding domain was cloned. Cloning and sequencing of the PPARgamma expression plasmid pcDNA3-GAL4-humanPPARgammaLBD again took place in analogy to the description in Sambrook J. et. al. (Molecular cloning, Cold Spring Harbor Laboratory Press, 1989). Besides the luciferase reporter plasmid pGL3basic-5xGAL4-TK and the PPARgamma expression plasmid pcDNA3-GAL4-humanPPARgammaLBD, also used for the cellular PPARgamma assay are the reference plasmid pRL-CMV (from Promega) and the plasmid pBluescript SK(+) from Stratagene. All four plasmids were prepared using a plasmid preparation kit from Qiagen, which ensured a plasmid quality with a minimal endotoxin content, before transfection into HEK cells.
The activity of PPARgamma agonists is determined in a 4-day assay which is described below. Before the transfection, HEK cells were cultivated in DMEM medium (#41965-039, Invitrogen) which was mixed with the following additions: 10% FCS (#16000-044, Invitrogen),1% penicillin-streptomycin solution (#15140-122, Invitrogen) and 2 mM L-glutamine (#25030-024, Invitrogen).
Solution A, a transfection mixture which contains all four plasmids previously described in addition to DMEM medium, was prepared. […]

[2] = target: T2, human PPARalpha (Homo sapiens, UniProt Q07869); test: Cellular PPARalpha assay (stably transfected HEK luciferase reporter cell line); assay type: cell-based; conditions: GR-GAL4-humanPPARalpha-LBD, 24 h
T2 construct: human PPARalpha receptor (amino acids S167-Y468); expressed in transfected cells; host or cells: HEK cells (stably transfected, pcDNA3, CMV promoter)
T2 sequence (Q07869 167-468): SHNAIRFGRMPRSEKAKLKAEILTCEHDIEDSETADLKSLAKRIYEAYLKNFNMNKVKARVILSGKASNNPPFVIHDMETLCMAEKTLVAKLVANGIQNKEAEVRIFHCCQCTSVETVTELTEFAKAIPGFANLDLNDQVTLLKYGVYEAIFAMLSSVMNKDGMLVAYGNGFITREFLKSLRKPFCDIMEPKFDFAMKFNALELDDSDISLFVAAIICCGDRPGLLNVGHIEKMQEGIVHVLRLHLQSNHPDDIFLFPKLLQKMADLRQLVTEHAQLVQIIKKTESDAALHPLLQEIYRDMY
Description: 1) Determination of EC50 Values of PPAR Agonists in the Cellular PPARalpha Assay
The activity of the novel compounds of the present invention was tested as follows The potency of substances which bind to human PPARalpha and activate it in an agonistic manner is analyzed using a stably transfected HEK cell line (HEK=human embryo kidney) which is referred to here as PPARalpha reporter cell line. It contained two genetic elements, a luciferase reporter element (pdeltaM-GAL4-Luc-Zeo) and a PPARalpha fusion protein (GR-GAL4-humanPPARalpha-LBD) which mediates expression of the luciferase reporter element depending on a PPARalpha ligand. The stably and constitutively expressed fusion protein GR-GAL4-humanPPARalpha-LBD binds in the cell nucleus of the PPARalpha reporter cell line via the GAL4 protein portion to the GAL4 DNA binding motifs 5′-upstream of the luciferase reporter element which was stably integrated in the genome of the cell line. There is only little expression of the luciferase reporter gene without addition of a PPARalpha ligand if fatty acid-depleted fetal calf serum (cs-FCS) is used in the assay. PPARalpha ligands bind and activate the PPARalpha fusion protein and thereby bring about expression of the luciferase reporter gene. The luciferase which is formed can be detected by means of chemiluminescence via an appropriate substrate.
The PPARalpha reporter cell line was prepared in two steps. Firstly, the luciferase reporter element was constructed and stably transfected into HEK cells. For this purpose, five binding sites of the yeast transcription factor GAL4 (in each case 5′-CGGAGTACTGTCCTCCGAG-3′) were cloned in 5′-upstream of a 68 bp-long minimal MMTV promoter (Genbank Accession #V01175). The minimal MMTV promoter section contains a CCAAT box and a TATA element in order to enable efficient transcription by RNA polymerase II. The cloning and sequencing of the GAL4-MMTV construct took place in analogy to the description of Sambrook J. et. al. (Molecular Cloning, Cold Spring Harbor Laboratory Press, 1989). Which is hereby incorporated by reference herein.
The complete Photinus pyralis luciferase gene (Genbank Accession #M15077) was cloned in 3′-downstream of the GAL4-MMTV element. After sequencing, the luciferase reporter element consisting of five GAL4 binding sites, MMTV promoter and luciferase gene was subcloned into a plasmid which confers zeozin resistance in order to obtain the plasmid pdeltaM-GAL4-Luc-Zeo. This vector was transfected into HEK cells in accordance with the statements in Ausubel, F.M. et al. (Current Protocols in Molecular Biology, Vol. 1-3, John Wiley & Sons, Inc., 1995).
In a second step, the PPARalpha fusion protein (GR-GAL4-humanPPARalpha-LBD) was introduced into the stable cell clone described. For this purpose, initially the cDNA coding for the N-terminal 76 amino acids of the glucocorticoid receptor (Genbank Accession # P04150) was linked to the cDNA section coding for amino acids 1-147 of the yeast transcription factor GAL4 (Genbank Accession #P04386). The cDNA of the ligand-binding domain of the human PPARalpha receptor (amino acids S167-Y468; Genbank Accession #S74349) was cloned in at the 3′ end of this GR-GAL4 construct. The fusion construct prepared in this way (GR-GAL4-humanPPARalpha-LBD) was subcloned into the plasmid pcDNA3 (from Invitrogen) in order to enable constitutive expression therein by the cytomegalovirus promoter. This plasmid was linearized with a restriction endonuclease and stably transfected into the previously described cell clone containing the luciferase reporter element. The finished PPARalpha reporter cell line which contains a luciferase reporter element and constitutively expresses the PPARalpha fusion protein (GR-GAL4-humanPPARalpha-LBD) was isolated by selection with zeozin (0.5 mg/ml) and G418 (0.5 mg/ml).
The activity of PPARalpha agonists was determined in a 3-day assay which is described below: […]

An EC50 [1] of 324 nM and an EC50 [2] of 1.9 nM were found for `CCc1oc(-c2ccc(C)c(C)c2)nc1COC[C@@H]1CCC[C@H](COC(C)(C)C(=O)O)C1` [Example 4, 2-{(1S,3R)-3-[2-(3,4-Dimethylphenyl)-5-ethyloxazol-4-ylmethoxymethyl]cyclohexylmethoxy}-2-methylpropionic acid] in this work.

An EC50 [1] of 2760 nM and an EC50 [2] of 152 nM were found for `CCc1oc(-c2ccccc2C(F)(F)F)nc1COC[C@@H]1CCC[C@H](COC(C)(C)C(=O)O)C1` [Example 3, 2-{(1S,3R)-3-[5-Ethyl-2-(2-trifluoromethylphenyl)-oxazol-4-ylmethoxymethyl]cyclohexylmethoxyl}-2-methylpropionic acid] in this work.

An EC50 [1] of 124 nM and an EC50 [2] of 313 nM were found for `Cc1oc(-c2ccc(-c3ccccc3)cc2)nc1COC[C@H]1CCC[C@@H](COC(C)(C)C(=O)O)C1` [Example 13, 2-[(1R,3S)-3-(2-Biphenyl-4-yl-5-methyloxazol-4-ylmethoxymethyl)cyclohexylmethoxy]-2-methylpropionic acid] in this work.

An EC50 [1] of 232 nM and an EC50 [2] of 32 nM were found for `CCc1oc(-c2cccc(C(F)(F)F)c2)nc1COC[C@@H]1CCC[C@H](COC(C)(C)C(=O)O)C1` [Example 2, 2-{(1S,3R)-3-[5-Ethyl-2-(3-trifluoromethylphenyl)-oxazol-4-ylmethoxymethyl]cyclohexylmethoxy}-2-methylpropionic acid] in this work.

An EC50 [1] of 150 nM and an EC50 [2] of 71.7 nM were found for “2-{(1R,3S)-3-[5-Isopropyl-2-(3-methoxyphenyl)oxazol-4-ylmethoxymethyl]cyclohexylmethoxy}-2-methylpropionic acid [Example 15]” in this work.

An EC50 [1] of 1790 nM and an EC50 [2] of 70.9 nM were found for `CC(C)c1oc(-c2ccc3ccccc3c2)nc1COC[C@@H]1CCC[C@H](COC(C)(C)C(=O)O)C1` [Example 11, 2-{(1S,3R)-3-[5-Isopropyl-2-(naphtha-2-yl)oxazol-4-ylmethoxymethyl]cyclohexylmethoxy}-2-methylpropionic acid] in this work.

With `Cc1oc(-c2ccc(C(C)C)cc2)nc1COCC1CCCC(COC(C)(C)C(=O)O)C1` (centres unmarked) [**] the EC50 [1] was > 10000 nM and the EC50 [2] was 1.3 nM.

An EC50 [1] of 109 nM and an EC50 [2] of 42 nM were found for `CC(C)Cc1ccc(-c2nc(COC[C@H]3CCC[C@@H](COC(C)(C)C(=O)O)C3)c(C(C)C)o2)cc1` [Example 17, 2-{(1R,3S)-3-[2-(4-Isobutylphenyl)-5-isopropyloxazol-4-ylmethoxymethyl]cyclohexylmethoxy}-2-methylpropionic acid] in this work.

An EC50 [1] of 1500 nM and an EC50 [2] of 37.5 nM were found for `Cc1ccc(-c2nc(COC[C@@H]3CCC[C@H](COC(C)(C)C(=O)O)C3)c(C(C)C)o2)cc1C` [Example 8, 2-{(1S,3R)-3-[2-(3,4-Dimethylphenyl)-5-isopropyloxazol-4-ylmethoxymethyl]cyclohexylmethoxy}-2-methylpropionic acid] in this work.

An EC50 [1] of 199 nM and an EC50 [2] of 12.7 nM were found for `CC(C)c1oc(-c2cccc(C(F)(F)F)c2)nc1COC[C@H]1CCC[C@@H](COC(C)(C)C(=O)O)C1` [Example 16, 2-{(1R,3S)-3-[5-Isopropyl-2-(3-trifluoromethylphenyl)oxazol-4-ylmethoxymethyl]cyclohexylmethoxyl}-2-methylpropionic acid] in this work.

An EC50 [1] of 192 nM and an EC50 [2] of 1.8 nM were found for `CCc1oc(-c2ccc3ccccc3c2)nc1COC[C@H]1CCC[C@@H](COC(C)(C)C(=O)O)C1` [Example 19, 2-[(1R,3S)-3-(5-Ethyl-2-naphthalen-2-yl-oxazol-4-ylmethoxymethyl)cyclohexylmethoxy]-2-methylpropionic acid] in this work.

An EC50 [1] of 2590 nM and an EC50 [2] of 75 nM were found for `Cc1oc(-c2ccccc2)nc1COCC1CCCC(COC(C)(C)C(=O)O)C1` (centres unmarked) [*] in this work.

An EC50 [1] of 71.4 nM and an EC50 [2] of 149 nM were found for `Cc1oc(-c2ccc(Oc3ccccc3)cc2)nc1COC[C@H]1CCC[C@@H](COC(C)(C)C(=O)O)C1` [Example 20, 2-Methyl-2-{(1R,3S)-3-[5-methyl-2-(4-phenoxyphenyl)oxazol-4-ylmethoxymethyl]cyclohexylmethoxy}propionic acid] in this work.
